# In patent publication US20110046223A1, “TREATMENT OF NEUROFIBROMATOSIS” (RAMOT AT TEL-AVIV UNIVERSITY LTD., priority 2006, published 2011):
# How the values were obtained:
# Assay type in all cases: cell-based, human
# [1] = test system: phospho-ERK; test: steady-state phospho-ERK, Western immunoblotting
# Procedure: (§1) Unless otherwise indicated, cells were lysed 48 hours after being treated with lysis buffer, as described in Haklai, et al., supra. […] Protein bands were visualized by ECL and quantified by densitometry with Image Master VDS-CL (Amersham) using TINA 2.0 software (Ray Tests). To obtain reliable comparisons between replicated experiments for statistical analysis, a standardization procedure was used, in which the density of each given protein band as recorded with its specific Ab, was normalized. […] The standard average density was defined as 1.0, and each of the individually determined bands was related to this value. […] Actin cytoskeletal elements were labeled with rhodamine-phalloidin, and digital fluorescence images were collected on a Zeiss LSM 510 confocal microscope fitted with fluorescein and rhodamine filters, as described in Gana-Weisz, M., et al., supra.
# (§2) Next, to determine whether down-regulation of active Ras by FTS was accompanied by inhibition of Ras signaling, the effect of FTS on steady-state levels of phospho-ERK, phospho-Akt, and RalA-GTP as read-outs of the three prominent Ras pathways, Ras/Raf/MEK/ERK, Ras/PI3K/Akt, and Ras/RalGEF/RalA, respectively, was examined. […]
# [2] = test system: phospho-Akt; test: steady-state phospho-Akt, Western immunoblotting
# Procedure: as §1, §2
# [3] = test system: RalA-GTP; test: steady-state RalA-GTP, GST-RalBD pulldown assay
# Procedure: as §1, §2
# [4] = test system: Ras-GTP; test: serum-stimulated GTP loading of Ras, kinetic study
# Procedure: Unless otherwise indicated, cells were lysed 48 hours after being treated with lysis buffer, as described in Haklai, et al., supra. Lysates containing 50-100 μg protein were subjected to SDS-PAGE followed by Western immunoblotting, as described in Haklai, et al., supra.; Elad-Sfadia, G., Haklai, R., Ballan, E., Gabius, H. J., Kloog, Y., J. Biol. Chem. 277:37169-75 (2002); Paz, A., Haklai, R., Elad, G., Ballab, E., Kloog, Y., Oncogene 20:7486-93 (2000), with one of the following antibodies: 1:2000 pan-Ras Ab-3; 1:10,000 anti-phospho-ERK Ab; 1:2000 anti-ERK Ab; 1:1000 anti-Akt Ab; 1:2000 anti-phospho-Akt Ab; 1:500 antitubulin Ab; 1:5000 anti-RalA Ab; 1:1000 anti-p120 RasGAP Ab; or 1:200 anti-neurofibromin Ab. The immunoblots were then exposed either to 1:7500 peroxidase goat anti-mouse IgG or to 1:2000 peroxidase goat anti-rabbit IgG. Protein bands were visualized by ECL and quantified by densitometry with Image Master VDS-CL (Amersham) using TINA 2.0 software (Ray Tests). To obtain reliable comparisons between replicated experiments for statistical analysis, a standardization procedure was used, in which the density of each given protein band as recorded with its specific Ab, was normalized. Normalization was achieved by collecting and averaging all the data obtained for a given band (for example, for the Ras-GTP band) in a set of experiments, irrespective of cell type or treatment. The standard average density was defined as 1.0, and each of the individually determined bands was related to this value. Accordingly, the normalized value of a single band would be 1.0 if it was equal to the standard value, or would range between values above and below 1.0 (respectively representing values higher and lower than the standard). The normalized values thus obtained were used to calculate means±SD and, to determine, using Student's t-test, the statistical significance of differences between populations. Lysates containing 500 μg protein were used to determine Ras-GTP by the GST-RBD pull-down assay, and this was followed by Western immunoblotting with pan anti-Ras Ab as described in Elad-Sfadia, G., et al., supra. Lysates containing 500 μg protein were used to determine RalA-GTP by the GST-RalBD pulldown assay, followed by Western immunoblotting with anti-RalA Ab [Wolthuis, R. M., Zwartkruis, F., Moen, T. C., Bos, J. L. Ral. Curr. Biol. 8:471-4 (1998)]. Actin cytoskeletal elements were labeled with rhodamine-phalloidin, and digital fluorescence images were collected on a Zeiss LSM 510 confocal microscope fitted with fluorescein and rhodamine filters, as described in Gana-Weisz, M., et al., supra.
# (§3) First, the time courses of serum-stimulated GTP loading of Ras and serum-stimulated activation of signals downstream of Ras were determined. […]
# [5] = test system: phospho-ERK; test: serum-stimulated phospho-ERK, kinetic study
# Procedure: as §1, §3
# [6] = test system: phospho-Akt; test: serum-stimulated phospho-Akt, kinetic study
# Procedure: as §1, §3
# [7] = non-NF-1 STS26T cells, steady state
# [8] = all NF-1 cell lines (T265P21, ST88-14, 90-8)
# [9] = STS26T cells, serum-starved 24 hours, stimulated with 10% serum
smiles,measurement,setting,value
"CC(C)=CCC/C(C)=C/CC/C(C)=C/CSc1ccccc1C(=O)O [FTS, S-farnesylthiosalicylic acid]",steady-state phospho-ERK,[1]; all NF-1 cell lines,significant reduction
same,increase in phospho-ERK,[1]; [7],10%-20%
same,steady-state phospho-Akt,[2]; all NF-1 cell lines,significant reduction
same,increase in phosphor-Akt,[2]; [7],10%-20%
same,steady-state RalA-GTP,[3]; all NF-1 cell lines,significant reduction
same,steady-state RalA-GTP,[3]; non-NF-1 STS26T cells,significant reduction
same,duration of the Ras signal in the presence of FTS,"[4]; NF-1 cells, serum stimulation",5 to 10 min
same,serum-stimulated increase in Ras-GTP,"[4]; STS26T cells, 20 μM FTS, serum-starved 24 hours, stimulated with 10% serum",strongly inhibited
same,"duration of the serum-stimulated signals (Ras-GTP, phospho-ERK, phospho-Akt)",[4]; all NF-1 cell lines,shortened the duration of the signals
same,serum-stimulated increase in Ras-GTP,[4]; [8],reduced
same,serum-stimulated increase in phospho-ERK,[5]; [9],inhibited
same,serum-stimulated increase in phosphor-ERK,[5]; [8],reduced
same,serum-stimulated increase in phospho-Akt,[6]; [9],inhibited
same,serum-stimulated increase in phospho-Akt,[6]; [8],reduced
